# Test results: PMC12090182, “Repurposing of the RIPK1-Selective Benzo[1,4]oxazepin-4-one Scaffold for the Development of a Type III LIMK1/2 Inhibitor” (ACS Chemical Biology, 2025)
# Read-outs that look alike come from different tables or passages of the source.
# System: U2OS cells
# Format: cell-based
# Details: U2OS
# Description: To assess the influence on cell health, a high-content screening in living cells called the multiplex high-content assay, as described previously by Tjaden et al., was performed.[38] In brief, HEK293T (ATCC CRL-1573) and U2OS (ATCCHTB-96) were cultured in DMEM plus L-glutamine (high glucose) supplemented by 10% FBS (Gibco) and penicillin/streptomycin (Gibco). MRC-9 fibroblasts ([…]) were cultured in EMEM plus L-glutamine supplemented by 10% FBS (Gibco) and penicillin/streptomycin (Gibco). Cells were seeded at a density of 1250 cells per well in a 384-well plate in a culture medium (cell culture microplate, PS, f-bottom, μClear, 781091, Greiner), with a volume of 50 μL per well. All outer wells were filled with 100 μL of PBS buffer (Gibco). […] The cell shape and fluorescence were measured before treatment and 12, 24, and 48 h after compound treatment using the CQ1 high-content confocal microscope (Yokogawa, Musashino, Japan). […] The compounds were tested at 1 and 10 μM, respectively. Acquired images of the cells were processed using Yokogawa CellPathfinder software (v3.04.02.02). […] Results were normalized to cells exposed to 0.1% DMSO. All compounds were tested in biological duplicates, and SEM (standard error of mean) was calculated of biological duplicates.
# [1] = 1 µM, 0 h, biological replicate 1
# [2] = 1 µM, 0 h, biological replicate 2
# [3] = 1 µM, 12 h, biological replicate 1
# [4] = 1 µM, 12 h, biological replicate 2
# [5] = 1 µM, 24 h, biological replicate 1
# [6] = 1 µM, 24 h, biological replicate 2
# [7] = 1 µM, 48 h, biological replicate 1
# [8] = 1 µM, 48 h, biological replicate 2
# [9] = 10 µM, 0 h, biological replicate 1
# [10] = 10 µM, 0 h, biological replicate 2
# [11] = 10 µM, 12 h, biological replicate 1
# [12] = 10 µM, 12 h, biological replicate 2
# [13] = 10 µM, 24 h, biological replicate 1
# [14] = 10 µM, 24 h, biological replicate 2
# [15] = 10 µM, 48 h, biological replicate 1
# [16] = 10 µM, 48 h, biological replicate 2
compound,measurement,setting,value
CC(C)C(=O)Nc1ncc(-c2cc(C(F)F)nn2-c2c(Cl)cccc2Cl)s1 [LIMKi3],Cell count normalized to cells treated with DMSO control,[1],1.067
same,Cell count per well,[1],222
same,Population Fragmented Nuclei (%),[1],50.47%
same,Population Healthy Nuclei (%),[1],44.34%
same,Population Pyknosed Nuclei (%),[1],5.19%
same,Population apoptotic cell (%),[1],81.82%
same,Population cell that influence microtubule strucutre (%),[1],3.19%
same,Population with increased mitochondrial mass (%),[1],4.26%
same,Population with membrane disruption (%),[1],8.51%
same,Cell count normalized to cells treated with DMSO control,[2],1.097
same,Cell count per well,[2],94
same,Population Fragmented Nuclei (%),[2],27.47%
same,Population Healthy Nuclei (%),[2],63.74%
same,Population Pyknosed Nuclei (%),[2],8.79%
same,Population apoptotic cell (%),[2],100.00%
same,Population cell that influence microtubule strucutre (%),[2],5.17%
same,Population with increased mitochondrial mass (%),[2],1.72%
same,Population with membrane disruption (%),[2],5.17%
same,Cell count normalized to cells treated with DMSO control,[3],0.9868
same,Cell count per well,[3],261
same,Population Fragmented Nuclei (%),[3],35.71%
same,Population Healthy Nuclei (%),[3],57.94%
same,Population Pyknosed Nuclei (%),[3],6.35%
same,Population apoptotic cell (%),[3],81.25%
same,Population cell that influence microtubule strucutre (%),[3],3.42%
same,Population with increased mitochondrial mass (%),[3],2.05%
same,Population with membrane disruption (%),[3],6.85%
same,Cell count normalized to cells treated with DMSO control,[4],1.091
same,Cell count per well,[4],129
same,Population Fragmented Nuclei (%),[4],18.25%
same,Population Healthy Nuclei (%),[4],76.98%
same,Population Pyknosed Nuclei (%),[4],4.76%
same,Population apoptotic cell (%),[4],100.00%
same,Population cell that influence microtubule strucutre (%),[4],4.12%
same,Population with increased mitochondrial mass (%),[4],4.12%
same,Population with membrane disruption (%),[4],5.15%
same,Cell count normalized to cells treated with DMSO control,[5],0.9303
same,Cell count per well,[5],290
same,Population Fragmented Nuclei (%),[5],30.77%
same,Population Healthy Nuclei (%),[5],62.24%
same,Population Pyknosed Nuclei (%),[5],6.99%
same,Population apoptotic cell (%),[5],80.00%
same,Population cell that influence microtubule strucutre (%),[5],2.25%
same,Population with increased mitochondrial mass (%),[5],3.37%
same,Population with membrane disruption (%),[5],5.06%
same,Cell count normalized to cells treated with DMSO control,[6],1.125
same,Cell count per well,[6],160
same,Population Fragmented Nuclei (%),[6],21.52%
same,Population Healthy Nuclei (%),[6],67.72%
same,Population Pyknosed Nuclei (%),[6],10.76%
same,Population apoptotic cell (%),[6],70.59%
same,Population cell that influence microtubule strucutre (%),[6],1.87%
same,Population with increased mitochondrial mass (%),[6],2.80%
same,Population with membrane disruption (%),[6],4.67%
same,Cell count normalized to cells treated with DMSO control,[7],0.8403
same,Cell count per well,[7],374
same,Population Fragmented Nuclei (%),[7],26.78%
same,Population Healthy Nuclei (%),[7],61.48%
same,Population Pyknosed Nuclei (%),[7],11.75%
same,Population apoptotic cell (%),[7],86.05%
same,Population cell that influence microtubule strucutre (%),[7],4.44%
same,Population with increased mitochondrial mass (%),[7],2.67%
same,Population with membrane disruption (%),[7],6.22%
same,Cell count normalized to cells treated with DMSO control,[8],0.9779
same,Cell count per well,[8],202
same,Population Fragmented Nuclei (%),[8],17.50%
same,Population Healthy Nuclei (%),[8],70.50%
same,Population Pyknosed Nuclei (%),[8],12.00%
same,Population apoptotic cell (%),[8],87.50%
same,Population cell that influence microtubule strucutre (%),[8],4.26%
same,Population with increased mitochondrial mass (%),[8],2.13%
same,Population with membrane disruption (%),[8],6.38%
same,Cell count normalized to cells treated with DMSO control,[9],1.081
same,Cell count per well,[9],225
same,Population Fragmented Nuclei (%),[9],43.12%
same,Population Healthy Nuclei (%),[9],50.46%
same,Population Pyknosed Nuclei (%),[9],6.42%
same,Population apoptotic cell (%),[9],78.57%
same,Population cell that influence microtubule strucutre (%),[9],4.55%
same,Population with increased mitochondrial mass (%),[9],3.64%
same,Population with membrane disruption (%),[9],7.27%
same,Cell count normalized to cells treated with DMSO control,[10],1.132
same,Cell count per well,[10],97
same,Population Fragmented Nuclei (%),[10],17.53%
same,Population Healthy Nuclei (%),[10],71.13%
same,Population Pyknosed Nuclei (%),[10],11.34%
same,Population apoptotic cell (%),[10],90.91%
same,Population cell that influence microtubule strucutre (%),[10],5.80%
same,Population with increased mitochondrial mass (%),[10],10.14%
same,Population with membrane disruption (%),[10],5.80%
same,Cell count normalized to cells treated with DMSO control,[11],0.8507
same,Cell count per well,[11],225
same,Population Fragmented Nuclei (%),[11],35.24%
same,Population Healthy Nuclei (%),[11],45.24%
same,Population Pyknosed Nuclei (%),[11],19.52%
same,Population apoptotic cell (%),[11],63.41%
same,Population cell that influence microtubule strucutre (%),[11],84.21%
same,Population with increased mitochondrial mass (%),[11],51.58%
same,Population with membrane disruption (%),[11],77.89%
same,Cell count normalized to cells treated with DMSO control,[12],0.9469
same,Cell count per well,[12],112
same,Population Fragmented Nuclei (%),[12],12.15%
same,Population Healthy Nuclei (%),[12],68.22%
same,Population Pyknosed Nuclei (%),[12],19.63%
same,Population apoptotic cell (%),[12],57.14%
same,Population cell that influence microtubule strucutre (%),[12],86.30%
same,Population with increased mitochondrial mass (%),[12],68.49%
same,Population with membrane disruption (%),[12],67.12%
same,Cell count normalized to cells treated with DMSO control,[13],0.7058
same,Cell count per well,[13],220
same,Population Fragmented Nuclei (%),[13],35.92%
same,Population Healthy Nuclei (%),[13],37.86%
same,Population Pyknosed Nuclei (%),[13],26.21%
same,Population apoptotic cell (%),[13],55.56%
same,Population cell that influence microtubule strucutre (%),[13],78.21%
same,Population with increased mitochondrial mass (%),[13],65.38%
same,Population with membrane disruption (%),[13],65.38%
same,Cell count normalized to cells treated with DMSO control,[14],0.7383
same,Cell count per well,[14],105
same,Population Fragmented Nuclei (%),[14],11.11%
same,Population Healthy Nuclei (%),[14],58.59%
same,Population Pyknosed Nuclei (%),[14],30.30%
same,Population apoptotic cell (%),[14],60.00%
same,Population cell that influence microtubule strucutre (%),[14],75.86%
same,Population with increased mitochondrial mass (%),[14],65.52%
same,Population with membrane disruption (%),[14],53.45%
same,Cell count normalized to cells treated with DMSO control,[15],0.528
same,Cell count per well,[15],235
same,Population Fragmented Nuclei (%),[15],37.96%
same,Population Healthy Nuclei (%),[15],28.70%
same,Population Pyknosed Nuclei (%),[15],33.33%
same,Population apoptotic cell (%),[15],68.06%
same,Population cell that influence microtubule strucutre (%),[15],77.42%
same,Population with increased mitochondrial mass (%),[15],54.84%
same,Population with membrane disruption (%),[15],80.65%
same,Cell count normalized to cells treated with DMSO control,[16],0.6342
same,Cell count per well,[16],131
same,Population Fragmented Nuclei (%),[16],20.83%
same,Population Healthy Nuclei (%),[16],49.17%
same,Population Pyknosed Nuclei (%),[16],30.00%
same,Population apoptotic cell (%),[16],77.78%
same,Population cell that influence microtubule strucutre (%),[16],77.97%
same,Population with increased mitochondrial mass (%),[16],54.24%
same,Population with membrane disruption (%),[16],67.80%
